Test results: ChEMBL document CHEMBL1909294, “Translating clinical findings into knowledge in drug safety evaluation--drug induced liver injury prediction system (DILIps)” (PLoS Comput Biol, 2011)
*1 amine or outer side, *2 acyl side, *3 side chain or, on linkers, in order; H or OH if unused. Where a SMILES comes first, the peptide text is derived from it. Bridges are numbered along the chain shown (N, C = ends). [ ]: non-standard residue; d: D form. The star is where a group is joined. ξ: configuration not given here. X2 = N=C1NCCC([C@H](N[*:1])C(=O)[*:2])N1; ΔAla(Z-3-ureido) = NC(=O)N/C=C(\N)C(=O)O; ξβ3hOrn = NCCCC(N)CC(=O)*; Dap = NC[C@H](N)C(=O)O

Legend:
Hepatotoxicity [1] = test system: Hepatotoxicity;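 on HepSE cirrhosis: cirrhosis hepatic side effect score taken from the DILIps (drug-induced liver injury prediction) training set; call rule not given here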;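 on HepSE elevated liver function tests: hepatic side effect score for raised liver function tests, as recorded in the DILIps training set used for predicting drug-induced liver injury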; on HepSE hepatic failure: call rule not given here;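 on HepSE hepatitis: Hepatitis-related hepatic side effect score taken from the training data of DILIps, a prediction system for drug-induced liver injury; call rule not given here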;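 on HepSE hepatomegaly: hepatic side effect score for hepatomegaly, taken from the training set of the DILIps drug-induced liver injury prediction system; call rule not given here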;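 on HepSE jaundice: Jaundice-related hepatic side-effect score drawn from the training data of the DILIps (drug-induced liver injury prediction system); call rule not given here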; on HepSE liver disease: call rule not given here
Hepatotoxicity [2] = test system: Hepatotoxicity; remark: listed apart in the source;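 on HepSE cirrhosis: cirrhosis hepatic side effect score taken from the DILIps (drug-induced liver injury prediction) training set; call rule not given here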;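 on HepSE elevated liver function tests: hepatic side effect score for raised liver function tests, as recorded in the DILIps training set used for predicting drug-induced liver injury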; on HepSE hepatic failure: call rule not given here;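 on HepSE hepatitis: Hepatitis-related hepatic side effect score taken from the training data of DILIps, a prediction system for drug-induced liver injury; call rule not given here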;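 on HepSE hepatomegaly: hepatic side effect score for hepatomegaly, taken from the training set of the DILIps drug-induced liver injury prediction system; call rule not given here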;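 on HepSE jaundice: Jaundice-related hepatic side-effect score drawn from the training data of the DILIps (drug-induced liver injury prediction system); call rule not given here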; on HepSE liver disease: call rule not given here
Hepatotoxicity [3] = test system: Hepatotoxicity; remark: listed apart in the source;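 on HepSE cirrhosis: cirrhosis hepatic side effect score taken from the DILIps (drug-induced liver injury prediction) training set; call rule not given here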;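 on HepSE elevated liver function tests: hepatic side effect score for raised liver function tests, as recorded in the DILIps training set used for predicting drug-induced liver injury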; on HepSE hepatic failure: call rule not given here;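 on HepSE hepatitis: Hepatitis-related hepatic side effect score taken from the training data of DILIps, a prediction system for drug-induced liver injury; call rule not given here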;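 on HepSE hepatomegaly: hepatic side effect score for hepatomegaly, taken from the training set of the DILIps drug-induced liver injury prediction system; call rule not given here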;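 on HepSE jaundice: Jaundice-related hepatic side-effect score drawn from the training data of the DILIps (drug-induced liver injury prediction system); call rule not given here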; on HepSE liver disease: call rule not given here
Hepatotoxicity [4] = test system: Hepatotoxicity; remark: listed apart in the source;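 on HepSE cirrhosis: cirrhosis hepatic side effect score taken from the DILIps (drug-induced liver injury prediction) training set; call rule not given here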;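 on HepSE elevated liver function tests: hepatic side effect score for raised liver function tests, as recorded in the DILIps training set used for predicting drug-induced liver injury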; on HepSE hepatic failure: call rule not given here;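 on HepSE hepatitis: Hepatitis-related hepatic side effect score taken from the training data of DILIps, a prediction system for drug-induced liver injury; call rule not given here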;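 on HepSE hepatomegaly: hepatic side effect score for hepatomegaly, taken from the training set of the DILIps drug-induced liver injury prediction system; call rule not given here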;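 on HepSE jaundice: Jaundice-related hepatic side-effect score drawn from the training data of the DILIps (drug-induced liver injury prediction system); call rule not given here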; on HepSE liver disease: call rule not given here
Hepatotoxicity [5] = test system: Hepatotoxicity; remark: listed apart in the source; on HepSE liver disease: call rule not given here
Hepatotoxicity [6] = test system: Hepatotoxicity; remark: listed apart in the source; on HepSE liver disease: call rule not given here
Hepatotoxicity [7] = test system: Hepatotoxicity; remark: listed apart in the source
Hepatotoxicity [8] = test system: Hepatotoxicity; remark: listed apart in the source
Hepatotoxicity [9] = test system: Hepatotoxicity; remark: listed apart in the source
Hepatotoxicity [10] = test system: Hepatotoxicity; remark: listed apart in the source
Hepatotoxicity [11] = test system: Hepatotoxicity; remark: listed apart in the source
Hepatotoxicity [12] = test system: Hepatotoxicity; remark: listed apart in the source
Hepatotoxicity [13] = test system: Hepatotoxicity; remark: listed apart in the source
Hepatotoxicity [14] = test system: Hepatotoxicity; remark: listed apart in the source

Structure (SMILES)	HepSE_hepatitis (Hepatotoxicity [1])	HepSE_cirrhosis (Hepatotoxicity [2])	HepSE_elevated liver function tests (Hepatotoxicity [3])	HepSE_jaundice (Hepatotoxicity [4])	HepSE_liver disease (Hepatotoxicity [5])	HepSE_hepatomegaly (Hepatotoxicity [6])	HepSE_hepatic failure (Hepatotoxicity [7])	HepSE_cholecystitis (Hepatotoxicity [8])	HepSE_liver fatty (Hepatotoxicity [9])	HepSE_hepatic necrosis (Hepatotoxicity [10])	HepSE_Combined Scores (Hepatotoxicity [11])	HepSE_cholelithiasis (Hepatotoxicity [12])	HepSE_bilirubinemia (Hepatotoxicity [13])	HepSE_liver function tests abnormal (Hepatotoxicity [14])
Oc1ccc2c(c1)[C@@]13CCCC[C@@]1(O)[C@@H](C2)N(CC1CCC1)CC3 [BUTORPHANOL]	0	0	0	0	0	0	0	0	0	0	0	0	0	0
C=CCN1C[C@H](C(=O)N(CCCN(C)C)C(=O)NCC)C[C@@H]2c3cccc4[nH]cc(c34)C[C@H]21 [CABERGOLINE]	0	0	0	0	0	0	0	0	0	0	1	0	0	1
Cn1c(=O)c2c(ncn2C)n(C)c1=O [CAFFEINE]	0	0	0	0	0	0	0	0	0	0	0	0	0	0
C=C1/C(=C\C=C2/CCC[C@]3(C)[C@@H]([C@H](C)/C=C/[C@@H](O)C4CC4)CC[C@@H]23)C[C@@H](O)C[C@@H]1O [CALCIPOTRIENE]	0	0	0	0	0	0	0	0	0	0	0	0	0	0
C=C1/C(=C\C=C2/CCC[C@]3(C)[C@@H]([C@H](C)CCCC(C)(C)O)CC[C@@H]23)C[C@@H](O)C[C@@H]1O [CALCITRIOL]	0	0	0	0	0	0	0	0	0	0	0	0	0	0
CCCCCOC(=O)Nc1nc(=O)n([C@@H]2O[C@H](C)[C@@H](O)[C@H]2O)cc1F [CAPECITABINE]	1	0	0	1	0	1	1	0	1	0	7	0	1	1
C[C@@H]1NC(=O)[C@@H](N)CNC(=O)[C@H](C2CCNC(=N)N2)NC(=O)/C(=C/NC(N)=O)NC(=O)[C@H](CNC(=O)CC(N)CCCN)NC1=O.N=C1NCCC([C@@H]2NC(=O)/C(=C/NC(N)=O)NC(=O)[C@H](CNC(=O)CC(N)CCCN)NC(=O)[C@H](CO)NC(=O)[C@@H](N)CNC2=O)N1 (stereo partly drawn) [CAPREOMYCIN] (H-[Dap]S[Dap](ξβ3hOrn)[ΔAla(Z-3-ureido)][X2]; lactam 1-C)	0	0	0	0	1	0	0	0	0	0	1	0	0	0
C[C@H](CS)C(=O)N1CCC[C@H]1C(=O)O [CAPTOPRIL]	1	0	0	1	0	0	0	0	0	0	2	0	0	0
C[N+](C)(C)CCOC(N)=O.[Cl-] [CARBACHOL]	0	0	0	0	0	0	0	0	0	0	0	0	0	0
NC(=O)N1c2ccccc2C=Cc2ccccc21 [CARBAMAZEPINE]	1	0	0	1	0	0	1	0	0	0	4	0	0	1
CC1(C)S[C@@H]2[C@H](NC(=O)C(C(=O)Oc3ccc4c(c3)CCC4)c3ccccc3)C(=O)N2[C@H]1C(=O)[O-].[Na+] (stereo partly drawn) [CARBENICILLIN INDANYL SODIUM]	0	0	0	0	0	0	0	0	0	0	0	0	0	0
CC1(C)S[C@@H]2[C@H](NC(=O)C(C(=O)O)c3ccccc3)C(=O)N2[C@H]1C(=O)O (stereo partly drawn) [CARBENICILLIN]	0	0	0	0	0	0	0	0	0	0	0	0	0	0
CN(C)CCOC(c1ccc(Cl)cc1)c1ccccn1 (stereo not drawn) [CARBINOXAMINE]	0	0	0	0	0	0	0	0	0	0	0	0	0	0
CCCC(C)(COC(N)=O)COC(=O)NC(C)C (stereo not drawn) [CARISOPRODOL]	0	0	0	0	0	0	0	0	0	0	0	0	0	0
O=NN(CCCl)C(=O)NCCCl [CARMUSTINE]	0	0	0	0	0	0	0	0	0	0	1	0	0	1
C[N+](C)(C)CC(O)CC(=O)[O-] (stereo not drawn) [CARNITINE]	0	0	0	0	0	0	0	0	0	0	0	0	0	0
CC(C)(C)NCC(O)COc1cccc2c1CCC(=O)N2 (stereo not drawn) [CARTEOLOL]	0	0	0	0	0	0	0	0	0	0	0	0	0	0
